{"source": "ChEMBL document CHEMBL3879888", "about": "“2,4,6-triamino-1,3,5-triazine derivative” (2008)", "note": "Activity calls are given as the source filed them. No cut-off for these calls is given here."}
{"molecular_target": "T1, Voltage-gated inwardly rectifying potassium channel KCNH3 (Homo sapiens) (UniProt Q9ULD8)", "T1 sequence (whole entry)": "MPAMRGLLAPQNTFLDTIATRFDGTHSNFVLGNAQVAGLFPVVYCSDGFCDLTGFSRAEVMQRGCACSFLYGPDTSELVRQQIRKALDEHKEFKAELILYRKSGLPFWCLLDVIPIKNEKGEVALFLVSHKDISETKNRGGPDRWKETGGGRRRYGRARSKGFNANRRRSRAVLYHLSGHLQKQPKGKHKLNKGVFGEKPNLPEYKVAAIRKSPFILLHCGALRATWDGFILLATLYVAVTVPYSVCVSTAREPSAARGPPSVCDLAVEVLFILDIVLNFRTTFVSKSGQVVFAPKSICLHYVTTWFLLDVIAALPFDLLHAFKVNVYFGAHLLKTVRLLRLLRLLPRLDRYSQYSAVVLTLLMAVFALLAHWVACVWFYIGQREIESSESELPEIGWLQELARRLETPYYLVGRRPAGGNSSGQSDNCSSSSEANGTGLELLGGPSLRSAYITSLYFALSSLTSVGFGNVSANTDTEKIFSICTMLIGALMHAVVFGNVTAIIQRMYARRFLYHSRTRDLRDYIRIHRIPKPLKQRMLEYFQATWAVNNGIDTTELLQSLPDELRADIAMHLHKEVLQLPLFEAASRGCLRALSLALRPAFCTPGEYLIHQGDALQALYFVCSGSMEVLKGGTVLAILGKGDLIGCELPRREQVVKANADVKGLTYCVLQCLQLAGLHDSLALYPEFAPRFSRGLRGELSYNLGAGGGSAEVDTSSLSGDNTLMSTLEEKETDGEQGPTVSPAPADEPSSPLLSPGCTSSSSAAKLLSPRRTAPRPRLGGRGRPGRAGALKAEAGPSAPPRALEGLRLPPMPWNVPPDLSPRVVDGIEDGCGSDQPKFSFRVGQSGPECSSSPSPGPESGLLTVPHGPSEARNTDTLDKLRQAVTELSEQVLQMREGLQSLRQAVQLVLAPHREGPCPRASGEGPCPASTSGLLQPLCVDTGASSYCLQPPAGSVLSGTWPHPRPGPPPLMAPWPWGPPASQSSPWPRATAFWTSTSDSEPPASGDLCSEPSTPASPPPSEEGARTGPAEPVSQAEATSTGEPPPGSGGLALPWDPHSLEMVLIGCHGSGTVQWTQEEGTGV", "experiment": "Inhibition of BEC1 (unknown origin) expressed in dihydrofolate reductase-deficient CHO cells assessed as decrease in KCl-induced intracellular 86Rb ion release at 3 uM after 20 mins relative to control", "type": "cell-based", "units": {"inhibition": "%"}}
{"compound": "c1ccc(Nc2nc(NCC3CC3)nc(Nc3ccccc3)n2)cc1", "inhibition": 51}
{"compound": "NC(=O)CNc1nc(Nc2ccccc2)nc(Nc2ccccc2)n1", "inhibition": 22}
{"compound": "CC(C)Nc1nc(Nc2ccccc2)nc(Nc2ccc(Br)cc2)n1", "inhibition": 27}
{"compound": "CSc1ccc(Nc2nc(Nc3ccc(SC)cc3)nc(NC(C)C)n2)cc1", "inhibition": 10}
{"compound": "O=C1NCCCCC1Nc1nc(Nc2ccccc2)nc(Nc2ccccc2)n1", "note": "(stereo not drawn)", "inhibition": 23}
{"compound": "CSc1ccccc1Nc1nc(Nc2ccccc2)nc(Nc2ccccc2)n1", "inhibition": 17}
{"compound": "Fc1cccc(CNc2nc(Nc3ccccc3)nc(Nc3ccccc3)n2)c1", "inhibition": 34}
{"compound": "Brc1ccc(CNc2nc(Nc3ccccc3)nc(Nc3ccccc3)n2)cc1", "inhibition": 33}
{"compound": "OC[C@@H](CNc1nc(Nc2ccccc2)nc(Nc2ccccc2)n1)c1ccccc1", "inhibition": 50}
{"compound": "CC(C)Nc1nc(Nc2ccc(Br)cc2)nc(Nc2ccc(Br)cc2)n1", "inhibition": 11}
{"compound": "O=[N+]([O-])c1ccc(CCNc2nc(Nc3ccccc3)nc(Nc3ccccc3)n2)cc1", "inhibition": 33}
{"compound": "Cc1cc(O)ccc1Nc1nc(Nc2ccccc2)nc(Nc2ccccc2)n1", "inhibition": 31}
{"compound": "c1ccc(Nc2nc(Nc3ccccc3)nc(Nc3ccc4c(c3)OCCO4)n2)cc1", "inhibition": 15}
{"compound": "CC(C)Nc1nc(Nc2ccccc2)nc(Nc2ccc3c(c2)OCCO3)n1", "inhibition": 40}
{"compound": "O=C1NCCCC[C@@H]1Nc1nc(Nc2ccccc2)nc(Nc2ccccc2)n1", "inhibition": 10}
{"compound": "Clc1ccc(CNc2nc(Nc3ccccc3)nc(Nc3ccccc3)n2)cc1", "inhibition": 45}
{"compound": "CCOC(=O)CNc1nc(Nc2ccccc2)nc(Nc2ccccc2)n1", "inhibition": 21}
{"compound": "Cc1cnc(CNc2nc(Nc3ccccc3)nc(Nc3ccccc3)n2)cn1", "inhibition": 29}
{"compound": "OC1CCCCC1Nc1nc(Nc2ccccc2)nc(Nc2ccccc2)n1", "note": "(stereo not drawn)", "inhibition": 23}
{"compound": "C=CCNc1nc(Nc2ccccc2)nc(Nc2ccccc2)n1", "inhibition": 44}
{"compound": "CSC1COC[C@H]1Nc1nc(Nc2ccccc2)nc(Nc2ccccc2)n1", "note": "(stereo partly drawn)", "inhibition": 49}
{"compound": "CCOC(=O)C(C)Nc1nc(Nc2ccccc2)nc(Nc2ccccc2)n1", "note": "(stereo not drawn)", "inhibition": 36}
{"compound": "Fc1ccccc1CNc1nc(Nc2ccccc2)nc(Nc2ccccc2)n1", "inhibition": 33}
{"compound": "CCOC(=O)CCCNc1nc(Nc2ccccc2)nc(Nc2ccccc2)n1", "inhibition": 29}
{"compound": "CC(C)Nc1nc(Nc2ccccc2)nc(Nc2ccc(F)cc2)n1", "inhibition": 25}
{"compound": "CSC1CCC[C@H]1Nc1nc(Nc2ccccc2)nc(Nc2ccccc2)n1", "note": "(stereo partly drawn)", "inhibition": 34}
{"compound": "c1ccc(Nc2nc(NCCc3cccs3)nc(Nc3ccccc3)n2)cc1", "inhibition": 10}
{"compound": "Cc1c(O)cccc1Nc1nc(Nc2ccccc2)nc(Nc2ccccc2)n1", "inhibition": 37}
{"compound": "Cc1ccc(CNc2nc(Nc3ccccc3)nc(Nc3ccccc3)n2)cc1", "inhibition": 35}
{"compound": "CC(C)Nc1nc(Nc2ccc3c(c2)OCCO3)nc(Nc2ccc3c(c2)OCCO3)n1", "inhibition": 11}
{"compound": "COc1ccc(CNc2nc(Nc3ccccc3)nc(Nc3ccccc3)n2)cc1", "inhibition": 31}
{"compound": "O=[N+]([O-])c1cccc(Nc2nc(Nc3ccccc3)nc(Nc3ccccc3)n2)c1", "inhibition": 12}
{"compound": "OCCc1ccccc1Nc1nc(Nc2ccccc2)nc(Nc2ccccc2)n1", "inhibition": 40}
{"compound": "c1ccc(Nc2nc(NCc3cccnc3)nc(Nc3ccccc3)n2)cc1", "inhibition": 59}
{"compound": "Cc1ccc([N+](=O)[O-])cc1Nc1nc(Nc2ccccc2)nc(Nc2ccccc2)n1", "inhibition": 22}
{"compound": "c1ccc(Nc2nc(Nc3ccccc3)nc(NC3CCCC3)n2)cc1", "inhibition": 19}
{"compound": "CC(C)Nc1nc(Nc2ccccc2)nc(Nc2ccc3c(c2)CCC3)n1", "inhibition": 18}
{"tested_on": "Mus musculus", "experiment": "Inhibition of electroconvulsive shock-induced amnesia in ddy mouse at 3 mg/kg, ip by passive avoidance test", "type": "functional, organism-based"}
{"compound": "Fc1ccc(Nc2nc(NCc3ccnc(F)c3)nc(Nc3ccccc3)n2)cc1", "inhibition": "Active"}
